# Test system: 941728-121-R-J1-PDC complex spheroid viability
# Assay: Anticancer human tumor 941728-121-R-J1-PDC patient-derived lung adenocarcinoma cell line growth inhibition [RAS]
# Conditions: for IC50: curve of first compound; for viability, T/C: stronger effect = lower value
# In short: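 Agents were tested in combination matrices in half-log decrements from a top concentration at or near clinical Cmax (10 microM if undetermined). Targets were multi-cell spheroids of tumour lines plus HUVEC and MSC stromal cells.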
# 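Also: spheroids exposed to compounds for 7 days before readout.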
# 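For viability, T/C in this document: 100% = DMSO vehicle control viability.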
structure (smiles),measurement,setting,value
CC(=O)OC12COC1CC(O)C1(C)C(=O)C(O)C3=C(C)C(OC(=O)C(O)C(NC(=O)OC(C)(C)C)c4ccccc4)CC(O)(C(OC(=O)c4ccccc4)C21)C3(C)C (configuration not stated) + CCn1c(-c2cccnc2C(C)OC)c2c3cc(ccc31)N1CCOC(CC(NC(=O)C(C(C)C)N(C)C(=O)C3(F)CCN(C(=O)C#CC(C)(C)N(C)C)CC3)C(=O)N3CCCC(N3)C(=O)OCC(C)(C)C2)C1,IC50,second compound 0.000949 µM,< 31.6 nM
same,IC50,second compound 0.003 µM,< 31.6 nM
same,IC50,second compound 0.00949 µM,< 31.6 nM
same,IC50,second compound 0.03 µM,< 31.6 nM
same,IC50,second compound 0.0949 µM,< 31.6 nM
same,IC50,second compound 0.3 µM,< 31.6 nM
same,"viability, T/C","second compound 0.000949 µM, first compound 0.0316 µM",18.3%
same,"viability, T/C","second compound 0.000949 µM, first compound 0.1 µM",15.4%
same,"viability, T/C","second compound 0.000949 µM, first compound 0.316 µM",11.9%
same,"viability, T/C","second compound 0.000949 µM, first compound 1 µM",15.6%
same,"viability, T/C","second compound 0.000949 µM, first compound 3.16 µM",15.1%
same,"viability, T/C","second compound 0.000949 µM, first compound 10 µM",14.2%
same,"viability, T/C","second compound 0.003 µM, first compound 0.0316 µM",17.3%
same,"viability, T/C","second compound 0.003 µM, first compound 0.1 µM",15.6%
same,"viability, T/C","second compound 0.003 µM, first compound 0.316 µM",13.1%
same,"viability, T/C","second compound 0.003 µM, first compound 1 µM",14.4%
same,"viability, T/C","second compound 0.003 µM, first compound 3.16 µM",14.9%
same,"viability, T/C","second compound 0.003 µM, first compound 10 µM",11.1%
same,"viability, T/C","second compound 0.00949 µM, first compound 0.0316 µM",16.9%
same,"viability, T/C","second compound 0.00949 µM, first compound 0.1 µM",13.9%
same,"viability, T/C","second compound 0.00949 µM, first compound 0.316 µM",13.1%
same,"viability, T/C","second compound 0.00949 µM, first compound 1 µM",13.8%
same,"viability, T/C","second compound 0.00949 µM, first compound 3.16 µM",12.7%
same,"viability, T/C","second compound 0.00949 µM, first compound 10 µM",12.7%
same,"viability, T/C","second compound 0.03 µM, first compound 0.0316 µM",17.6%
same,"viability, T/C","second compound 0.03 µM, first compound 0.1 µM",16.2%
same,"viability, T/C","second compound 0.03 µM, first compound 0.316 µM",14.4%
same,"viability, T/C","second compound 0.03 µM, first compound 1 µM",13%
same,"viability, T/C","second compound 0.03 µM, first compound 3.16 µM",14.6%
same,"viability, T/C","second compound 0.03 µM, first compound 10 µM",16.3%
same,"viability, T/C","second compound 0.0949 µM, first compound 0.0316 µM",15.9%
same,"viability, T/C","second compound 0.0949 µM, first compound 0.1 µM",15.1%
same,"viability, T/C","second compound 0.0949 µM, first compound 0.316 µM",16.1%
same,"viability, T/C","second compound 0.0949 µM, first compound 1 µM",15.3%
same,"viability, T/C","second compound 0.0949 µM, first compound 3.16 µM",13.6%
same,"viability, T/C","second compound 0.0949 µM, first compound 10 µM",17.3%
same,"viability, T/C","second compound 0.3 µM, first compound 0.0316 µM",16.8%
same,"viability, T/C","second compound 0.3 µM, first compound 0.1 µM",17.5%
same,"viability, T/C","second compound 0.3 µM, first compound 0.316 µM",16.6%
same,"viability, T/C","second compound 0.3 µM, first compound 1 µM",15.9%
same,"viability, T/C","second compound 0.3 µM, first compound 3.16 µM",15.8%
same,"viability, T/C","second compound 0.3 µM, first compound 10 µM",16.9%
